Experimental data from US9139810B2, “Method for culturing microorganisms to incorporate a substitue element” (priority 2010, dated 2015).

Tests used:
[1] = system: E. coli K12 NBRC3301; settings: C(αC)Y medium, FIG. 1
[2] = system: E. coli K12NBRC3301; test: S starvation, adaptation culture with dSi and elementary analysis of cells by ICP-MS (Example 16); type: cell-based, Escherichia coli
[3] = system: E. coli K-12 (NBRC3993); settings: additive (mg/mL as printed in the row) to S(−)fa medium, 37° C.
[4] = system: E. coli K12 NBRC3301; test: Growth and adaptation culture in C(αC+X)Y medium with mmSi (Example 2, FIG. 2); type: cell-based, Escherichia coli
Description: A C source-limited medium (C(αC) medium) was prepared by adding a limited amount of lactate Na as C source (denoted as “αC”) to a C source-deleted C (−) medium. Escherichia coli growth was then examined using a C(αC+X) medium prepared by adding a methyl group-containing organic silicon compound mmSi (methyltrimethoxysilane (see Tables 2 and 3 for abbreviations for the compound)) to the C(αC) medium as a C source substitute compound; that is, an X-containing compound. Moreover, the effects resulting from adaptation culture were examined (specifically, after completion of the 1st (T1) culture, 2nd subculture (T2) was started in a medium of the same composition).
C source substitute compound: X: mmSi (methyltrimethoxysilane). Culture conditions: 100 mL/Erlenmeyer flask; 33° C.; and 130 rpm. At the time of completion of the 1st culture of, a portion of the culture fluid was pipetted off. Cells were washed by centrifugation and then seeded in a medium of the same composition. The OD value at the initiation of the subculture was adjusted to be close to the initial OD value of the 1st culture generation.
In a manner similar to that in Example 1, E. coli K12 starter cells were grown in a GY medium, cells were washed, and then subjected to C source starvation culture. The resulting cells were seeded as starter cells in a medium. On day 2, the 1st culture (denoted as “T1d2” in FIG. 2) cells were washed and then the cells were seeded as starter cells in a medium of the same composition for 2nd subculture for adaptation. On day 2 of the 2nd subculture (T2d2), the growth was measured.

[5] = system: B. subtilis Marburg NBRC13719; test: Growth and Si content of acetone-treated cells by ICP/MS (Example 4); type: cell-based, Bacillus subtilis; settings: for D 1 OD 660 nm: 22 hours; for D1ACW: acetone-treated dried cells
[6] = system: S. cerevisiae NBRC0268; test: as above; type: cell-based, Saccharomyces cerevisiae; settings: lac 3 + compound 5
[7] = system: E. coli K12 NBRC3301; type: cell-based, Escherichia coli
[8] = system: B. subtilis NBRC13719; type: cell-based, Bacillus subtilis; settings: Glc(1) + Yex (0.5); day 5
[9] = system: E. coli K12 NBRC 3301; test: Growth and Si content of acetone-treated cells by ICP/MS (Example 4); type: cell-based, Escherichia coli; settings: lac 1 + compound 5
[10] = lac 2 mg/mL + Y 0.5 mg/mL, FIG. 2
[11] = S(dSi)fa medium, d 3, mean of 2 to 3 flasks

## CCO [ethanol]
[1]
  OD with ethanol equimolar to the ethyl group in emSi, compared with emSi: lower than that of emSi

## O=S(=O)([O-])[O-].[Na+].[Na+] [Sodium sulfate, Sodium sulfate, anhydrous, reference compound]
[2]; test 2, S(−)fa + Na2SO4 (0.2 mg/mL), d3
  OD 660 nm: 200 (OD 4.2)
[3]
  Amount of E. coli K12NBRC3993 growth OD660 × 10 d (cultured for 1 day): 0.144

## CO[Si](C)(OC)OC [mmSi, Methyltrimethoxysilane]
[4]; adaptation culture, T2d2 vs T1d2
  amount of growth in 2nd subculture versus 1st subculture: higher than that of the 1st subculture
[4]; [10]
  OD value compared with control (only limited amount of C source): increased
  dose dependence of increases in OD value: in a dose-dependent manner
[4]; no limited C source (rightmost in FIG. 2)
  growth on the compound alone: did not grow
[5]; lac 3 + compound 5
  D 1 OD 660 nm: 2
  D1ACW: 309 mg/100 mL
[6]; 22 hours
  D 1 OD 660 nm: 3.14
[6]; acetone-treated dried cells
  D1ACW: 274 mg/100 mL

## N[C@@H](CS)C(=O)O [L-cysteine]
[3]
  Amount of E. coli K12NBRC3993 growth OD660 × 10 d (cultured for 1 day): 0.240

## Sodium disilicate [dSi]
[2]; [11]
  OD 660 nm at end of 4th subculture of adaptation culture: 1.93
  OD 660 nm at end of 5th subculture of adaptation culture: 3.22
[2]; S(dSi)fa medium, d 7, mean of 2 to 3 flasks
  OD 660 nm at end of 3rd subculture of adaptation culture: 1.91
[2]; S(dSi)fa medium, d 9, mean of 2 to 3 flasks
  OD 660 nm at end of 2nd subculture of adaptation culture: 2.00
[2]; S(dSi)fa medium, d 13, mean of 2 to 3 flasks
  OD 660 nm at end of 1st subculture of adaptation culture: 2.13
[2]; test 3, S(−)fa + Na2SO4 (0.02) + dSi (0.4 mg/mL), d3
  OD 660 nm: 170 (OD 6.0)
[2]; test 4, S(−)fa + dSi (0.4 mg/mL), no S source, d4
  OD 660 nm: 190 (OD 3.0)

## O=BOB(O)OB(O)OB=O [BB, Borax or sodium borate]
[7]; C source substitute compound
  colony count and OD value compared with medium with only limited C source: increased
[7]; Lac (2) + Y, X (10), day 5
  OD 660 nm (d5): 1.59

## CCO[Si](C)(C)OCC [emSi, Diethoxydimethylsilane]
[8]
  OD 660 nm (d5): 6.69
[5]; lac 1 + compound 5
  D 1 OD 660 nm: 2.48
  D1ACW: 289 mg/100 mL
[9]; 22 hours
  D 1 OD 660 nm: 1.79
[9]; acetone-treated dried cells
  D1ACW: 203 mg/100 mL
